From patent US8703805B2 (Exelixis Patent Company LLC, priority 2005, dated 2014)

These molecules were tested on LXRα and/or LXRβ (assay: LXR/LXRE co-transfection assay (luciferase reporter, CV-1 cells)). Conditions: IC50 or EC50 for LXR (LXRα and/or LXRβ, not distinguished), tested as described in Example 109, CV-1 cells.
Assay type: cell-based, human
How it was run: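 Transient co-transfection of CV-1 cells with full-length human LXRα or LXRβ plus RXRα expression plasmids and an LXREx1-Tk-luciferase reporter; compounds (10 μM screen, ≤1% DMSO) incubated 20 h at 37 °C. Luminescence read after lysis; EC50/IC50 from 8-point half-log curves, efficacy relative to a high control or DMSO.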

Row | SMILES | EC50 [µM]
1 | CN(CC(=O)O)C(=O)c1cc(-c2ccc(-c3cccc(S(C)(=O)=O)c3)s2)n(-c2ccccc2Cl)n1 [Example 1154, N-{[1-(2-chlorophenyl)-5-{5-[3-(methylsulfonyl)phenyl]-2-thienyl}-1H-pyrazol-3-yl]carbonyl}-N-methylglycine] | 1 to 10
2 | CC(C)(O)c1cc(-c2ccc(-c3cccc(S(C)(=O)=O)c3)s2)n(-c2ccccc2C(F)(F)F)n1 [Example 1158, 2-(5-{5-[3-(methylsulfonyl)phenyl]-2-thienyl}-1-[2-(trifluoromethyl)phenyl]-1H-pyrazol-3-yl)propan-2-ol] | < 1
3 | CC(C)c1cccc(-c2ccc(-c3cc(C(C)(C)O)nn3-c3ccccc3Cl)s2)c1 [Example 1332, 2-[1-(2-chlorophenyl)-5-{5-[3-(1-methylethyl)phenyl]-2-thienyl}-1H-pyrazol-3-yl]propan-2-ol] | 1 to 10
4 | CC(C)CNC(=O)c1cc(-c2ccc(-c3cccc(S(C)(=O)=O)c3)cc2Cl)n(-c2c(Cl)cccc2Cl)n1 [Example 1389, 5-(3-chloro-3′-(methylsulfonyl)biphenyl-4-yl)-1-(2,6-dichlorophenyl)-N-isobutyl-1H-pyrazole-3-carboxamide] | < 1
5 | CC(C)(O)c1cc(-c2ccc(-c3cccc(S(C)(=O)=O)c3)s2)n(-c2cc(Cl)ccc2F)n1 [Example 1336, 2-[1-(5-chloro-2-fluorophenyl)-5-{5-[3-(methylsulfonyl)phenyl]-2-thienyl}-1H-pyrazol-3-yl]propan-2-ol] | < 1
6 | C/C(=N\OCCN(C)C)c1cc(-c2ccc(-c3cccc(S(C)(=O)=O)c3)s2)n(-c2ccccc2Cl)n1 [Example 1337, (1E)-1-[1-(2-chlorophenyl)-5-{5-[3-(methylsulfonyl)phenyl]-2-thienyl}-1H-pyrazol-3-yl]ethanone O-[2-(dimethylamino)ethyl]oxime] | < 1
7 | Cc1cc(-c2cccc(S(C)(=O)=O)c2)ccc1-c1cc(C(C)(C)O)nn1Cc1cccc(Cl)c1Cl [Example 1384, 2-(1-(2,3-dichlorobenzyl)-5-(3-methyl-3′-(methylsulfonyl)biphenyl-4-yl)-1H-pyrazol-3-yl)propan-2-ol] | < 1
8 | CC(C)(O)c1nn(-c2ccc(-c3cccc(S(C)(=O)=O)c3)cc2)c(-c2ccccc2Cl)c1Cl [Example 110, 2-(4-chloro-5-(2-chlorophenyl)-1-(3′-(methylsulfonyl)biphenyl-4-yl)-1H-pyrazol-3-yl)propan-2-ol] | < 1
9 | CC(=O)c1cc(-c2ccc(-c3cccc(S(C)(=O)=O)c3)s2)n(-c2c(Cl)cccc2Cl)n1 [Example 1242, 1-[1-(2,6-dichlorophenyl)-5-{5-[3-(methylsulfonyl)phenyl]-2-thienyl}-1H-pyrazol-3-yl]ethanone] | < 1
10 | CO/N=C(\C)c1cc(-c2ccc(-c3cccc(S(C)(=O)=O)c3)s2)n(-c2ccccc2Cl)n1 [Example 1177, (1E)-1-[1-(2-chlorophenyl)-5-{5-[3-(methylsulfonyl)phenyl]-2-thienyl}-1H-pyrazol-3-yl]ethanone O-methyloxime] | < 1
11 | CC(C)(O)c1cc(-c2ccc(-c3cccc(O)c3)cc2)n(-c2ccccc2Cl)n1 [Example 1285, 4′-[1-(2-chlorophenyl)-3-(1-hydroxy-1-methylethyl)-1H-pyrazol-5-yl]biphenyl-3-ol] | 1 to 10
12 | CC(C)(O)c1nn(-c2cccnc2C(F)(F)F)c(-c2ccc(-c3cccc(S(C)(=O)=O)c3)cc2Cl)c1Cl [Example 1387, 2-(4-chloro-5-(3-chloro-3′-(methylsulfonyl)biphenyl-4-yl)-1-(2-(trifluoromethyl)pyridin-3-yl)-1H-pyrazol-3-yl)propan-2-ol] | < 1
13 | CC(C)(O)c1cc(-c2ccc(-c3cccc(S(C)(=O)=O)c3)s2)n(-c2cnccc2C(F)(F)F)n1 [Example 1351, 2-(5-{5-[3-(methylsulfonyl)phenyl]-2-thienyl}-1-[4-(trifluoromethyl)pyridin-3-yl]-1H-pyrazol-3-yl)propan-2-ol] | 1 to 10
14 | CCN(CC)C(=O)COc1cccc(-c2ccc(-c3cc(C(C)(C)O)nn3-c3ccccc3Cl)cc2)c1 [Example 1298, 2-({4′-[1-(2-chlorophenyl)-3-(1-hydroxy-1-methylethyl)-1H-pyrazol-5-yl]biphenyl-3-yl}oxy)-N,N-diethylacetamide] | 1 to 10
15 | CC(C)(O)c1cc(-c2ccc(-c3cccc(S(C)(=O)=O)c3)cc2Cl)n(-c2c(Cl)cccc2Cl)n1 [Example 142, 2-(5-(3-chloro-3′-(methylsulfonyl)biphenyl-4-yl)-1-(2,6-dichlorophenyl)-1H-pyrazol-3-yl)propan-2-ol] | < 1
16 | CC(C)(O)c1ccccc1-n1nc(C(F)(F)F)cc1-c1ccc(-c2cccc(S(C)(=O)=O)c2)s1 [Example 1229] | < 1
17 | COC(=O)c1cc(-c2ccccc2Cl)n(-c2ccc(-c3cccc(S(C)(=O)=O)c3)nc2)n1 [Example 1244, methyl 5-(2-chlorophenyl)-1-{6-[3-(methylsulfonyl)phenyl]pyridin-3-yl}-1H-pyrazole-3-carboxylate] | 1 to 10
18 | CC(C)(C(=O)O)c1cccc(-c2ccc(-c3cc(C(F)(F)F)nn3-c3ncccc3C(F)(F)F)s2)c1 [Example 1165, 2-methyl-2-[3-(5-{3-(trifluoromethyl)-1-[3-(trifluoromethyl)pyridin-2-yl]-1H-pyrazol-5-yl}-2-thienyl)phenyl]propanoic acid] | 1 to 10

Second part, the molecule after the results:

Row | EC50 [µM] | SMILES
19 | < 1 | CS(=O)(=O)c1cccc(-c2ccc(-c3cc(C(O)(C(F)(F)F)C(F)(F)F)nn3-c3ccccc3Cl)s2)c1 [Example 1164, 2-[1-(2-chlorophenyl)-5-{5-[3-(methylsulfonyl)phenyl]-2-thienyl}-1H-pyrazol-3-yl]-1,1,1,3,3,3-hexafluoropropan-2-ol]
20 | < 1 | CS(=O)(=O)c1cc(-c2ccc(-c3cc(C(F)(F)F)nn3-c3ncccc3C(F)(F)F)s2)ccc1CO [Example 1149, [2-(methylsulfonyl)-4-(5-{3-(trifluoromethyl)-1-[3-(trifluoromethyl)pyridin-2-yl]-1H-pyrazol-5-yl}-2-thienyl)phenyl]methanol]
21 | < 1 | CC(C)S(=O)(=O)c1cccc(-c2ccc(-c3cc(C(C)(C)O)nn3-c3ccccc3Cl)s2)c1 [Example 1185, 2-[1-(2-chlorophenyl)-5-(5-{3-[(1-methylethyl)sulfonyl]phenyl}-2-thienyl)-1H-pyrazol-3-yl]propan-2-ol]
22 | < 1 | CC(C)(O)c1cc(-c2ccc(-c3cccc(S(C)(=O)=O)c3)s2)n(-c2cccnc2)n1 [Example 1346, 2-(5-{5-[3-(methylsulfonyl)phenyl]-2-thienyl}-1-pyridin-3-yl-1H-pyrazol-3-yl)propan-2-ol]
23 | < 1 | CC(C)(O)c1cc(-c2c(F)cccc2Cl)n(-c2ccc(-c3cccc(S(C)(=O)=O)c3)cc2F)n1 [Example 120, 2-(5-(2-chloro-6-fluorophenyl)-1-(3-fluoro-3′-(methylsulfonyl)biphenyl-4-yl)-1H-pyrazol-3-yl)propan-2-ol]
24 | 1 to 10 | Cc1ccc(-n2nc(C(F)(F)F)cc2-c2ccc(-c3cccc(S(C)(=O)=O)c3)s2)c(Cl)c1O [Example 1251, 2-chloro-6-methyl-3-[5-{5-[3-(methylsulfonyl)phenyl]-2-thienyl}-3-(trifluoromethyl)-1H-pyrazol-1-yl]phenol]
25 | < 1 | COC(F)(F)c1cc(-c2ccc(-c3cccc(S(C)(=O)=O)c3)s2)n(-c2ccccc2C(F)(F)F)n1 [Example 1211, 3-[difluoro(methyloxy)methyl]-5-{5-[3-(methylsulfonyl)phenyl]-2-thienyl}-1-[2-(trifluoromethyl)phenyl]-1H-pyrazole]
26 | 1 to 10 | CC(C)(O)c1cc(-c2ccccc2Cl)n(-c2ccc(-c3cccc(S(C)(=O)=O)c3)cn2)n1 [Example 1233, 2-[5-(2-chlorophenyl)-1-{5-[3-(methylsulfonyl)phenyl]pyridin-2-yl}-1H-pyrazol-3-yl]propan-2-ol]
27 | 1 to 10 | CS(=O)(=O)NC(=O)c1cc(-c2ccc(-c3cccc(S(C)(=O)=O)c3)s2)n(-c2ccccc2C(F)(F)F)n1 [Example 1196, N-(methylsulfonyl)-5-{5-[3-(methylsulfonyl)phenyl]-2-thienyl}-1-[2-(trifluoromethyl)phenyl]-1H-pyrazole-3-carboxamide]
28 | 1 to 10 | CCN1CCC(CNC(=O)c2cc(-c3ccc(-c4cccc(S(C)(=O)=O)c4)s3)n(-c3ccccc3Cl)n2)C1 (stereo not drawn) [Example 739, 1-(2-chlorophenyl)-N-[(1-ethylpyrrolidin-3-yl)methyl]-5-{5-[3-(methylsulfonyl)phenyl}-2-thienyl}-1H-pyrazole-3-carboxamide]
29 | 1 to 10 | CCS(=O)(=O)c1cccc(-c2ccc(-c3cc(C(C)(C)O)nn3-c3ccccc3Cl)s2)c1 [Example 1316, 2-[1-(2-chlorophenyl)-5-{5-[3-(ethylsulfonyl)phenyl]-2-thienyl}-1H-pyrazol-3-yl]propan-2-ol]
30 | < 1 | CS(=O)(=O)c1cccc(-c2ccc(-c3cc(C(=O)NCC(F)(F)F)nn3-c3c(Cl)cccc3Cl)c(Cl)c2)c1 [Example 1397, 5-(3-chloro-3′-(methylsulfonyl)biphenyl-4-yl)-1-(2,6-dichlorophenyl)-N-(2,2,2-trifluoroethyl)-1H-pyrazole-3-carboxamide]
31 | < 1 | CC(C)S(=O)(=O)c1cccc(-c2ccc(-c3cc(C(F)(F)F)nn3-c3ccccc3Cl)cc2)c1 [Example 1167, 1-(2-chlorophenyl)-5-{3′-[(1-methylethyl)sulfonyl]biphenyl-4-yl}-3-(trifluoromethyl)-1H-pyrazole]
32 | 1 to 10 | CC(C)(O)c1cc(-c2ccc(-c3cccc(S(N)(=O)=O)c3)cc2)n(-c2ccccc2Cl)n1 [Example 1300, 4′-[1-(2-chlorophenyl)-3-(1-hydroxy-1-methylethyl)-1H-pyrazol-5-yl]biphenyl-3-sulfonamide]
33 | 1 to 10 | COC(=O)c1cccc(-c2ccc(-c3cc(C(F)(F)F)nn3-c3ccccc3Cl)cc2)c1 [Example 1208, methyl 4′-[1-(2-chlorophenyl)-3-(trifluoromethyl)-1H-pyrazol-5-yl]biphenyl-3-carboxylate]
